This is an account of results in US12653818B2, “Pharmaceutical compositions comprising nitroxoline lysinate, preparation method therefor and use thereof” (Jiangsu Yahong Meditech Co., Ltd., priority 2020, dated 2026).

SMILES strings stand for the structures.

Broadly, the solubility is the concentration that dissolves in the medium under given conditions. Low values mean a poorly soluble substance, high ones a readily soluble substance.

Series [1] can be described thus: Saturated solubility of the main drug in different media. It counts as physicochemical. As to conditions: for solubility at 72 h: thermodynamic from solid, 37° C. On the procedure:
The solubility of the main drug (5-nitro-8-hydroxyquinoline L-lysinate monohydrate) is greatly affected by pH. In order to select a suitable dissolution medium to achieve the sink condition, the saturated solubility of the main drug in water, pH 1.0 hydrochloric acid solution, pH 4.0 buffer (solution A: water was added to 21 g of citric acid or 19.2 g of anhydrous citric acid to obtain a 1000 mL solution, which was then stored in a refrigerator; solution B: water was added to 71.63 g of disodium hydrogen phosphate to obtain a 1000 mL solution; 61.45 mL of solution A and 38.55 mL of solution B were mixed and shaked well to obtain the pH 4.0 buffer) and pH 6.8 PBS buffer (118 mL of 0.2 mol/L sodium hydroxide solution was added to 250 mL of 0.2 mol/L phosphoric acid solution, the resulting solution was diluted with water to 1000 mL and shaked well to obtain the pH 6.8 PBS buffer) were investigated. The specific method: excessive main drug (about 1.5 g) was added to 10 mL of the above four media, respectively; the resulting mixture was placed in a SHA-B multifunctional water bath constant temperature shaker (manufacturer: Zenith Lab (Jiangsu) Co., Ltd.) at water bath temperature of 37° C. and shaked at a speed of 280 rpm for 72 hours; the solution was filtered through a 0.45 μm nitrocellulose membrane (manufacturer: Tianjin Jinteng Experimental Equipment Co., Ltd.); and the filtrate was measured with a UV-2700 ultraviolet-visible spectrophotometer (manufacturer: Shimadzu, Japan), detection wavelength: 369 nm.

The conditions of series [2]: compared with nitroxoline; in words; cited from earlier work.

For the compound `O=[N+]([O-])c1ccc(O)c2ncccc12` [main drug, 5-nitro-8-hydroxyquinoline L-lysinate monohydrate], the “Whether the sink condition was achieved” value in series [1] (Water) is “Yes”; in series [1] (pH 1.0 hydrochloric acid solution) it was “Yes”; in series [1] (pH 4.0 buffer) it was “No”; in series [1] (pH 6.8 PBS buffer) it was “Yes”. Further, the solubility at 72 h in series [1] (aqueous buffer, pH 6.8 PBS buffer) is 15700 µg/mL; in series [1] (pH 4.0 buffer (citric acid / disodium hydrogen phosphate), aqueous buffer, pH 4.0 buffer), 430 µg/mL; in series [1] (simulated gastric fluid, pH 1.0 hydrochloric acid solution), 1540 µg/mL; in series [1] (Water), 100000 µg/mL.

On to `O=[N+]([O-])c1ccc(O)c2ncccc12` [nitroxoline lysinate], for which, in series [2], the water solubility result is reported as “better than that of nitroxoline”.
